molecular target: PDE10 (UniProt Q9Y233); assay: PDE10 enzyme inhibition, IMAP TR-FRET assay (MPDE10A7 Enzyme Activity and Inhibition); format: biochemical; conditions: IC50 class against PDE10; read-out: IC50
Procedure, shortened: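 IMAP TR-FRET read-out of PDE10 hydrolysis of fluorescein-cAMP or -cGMP (60 min, room temperature), after a 30 min compound-enzyme preincubation. Enzyme source was PDE10A or tissue homogenate. Averaged IC50s are reported as five range classes.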

| Compound | IC50 [nM] |
| --- | --- |
| COC(=O)C1(c2nccnc2Oc2ccc(Nc3nc4ccccc4s3)cc2)CCOCC1 [Example 212, methyl 4-(3-(4-(benzo[d]thiazol-2-ylamino)phenoxy)pyrazin-2-yl)tetrahydro-2H-pyran-4-carboxylate] | < 25 |
| 1H-BENZIMIDAZOL-2-YL(4-((3-(CIS-4-HYDROXYCYCLOHEXYL)-2-PYRAZINYL)OXY)PHENYL)METHANONE AND 1H-BENZIMIDAZOL-2-YL(4-((3-(TRANS-4-HYDROXYCYCLOHEXYL)-2-PYRAZINYL)OXY)PHENYL)METHANONE [Example 188] | < 25 |
| COC1CC=C(c2nccnc2Oc2ccc(C(=O)c3nc4ccccc4[nH]3)cc2)CC1 (stereo not shown) [Example 187, 1H-Benzimidazol-2-yl(4-((3-(4-methoxy-1-cyclohexen-1-yl)-2-pyrazinyl)oxy)phenyl)methanone] | < 25 |
| O=C(c1ccc(Oc2nccnc2OCC2CCOC2)cc1)c1nc2ccccc2[nH]1 (stereo not shown) [Example 171, (1H-benzo[d]imidazol-2-yl)(4-(3-((tetrahydrofuran-3-yl)methoxy)pyrazin-2-yloxy)phenyl)methanone] | 100 to 250 |
| CC(C)n1c(C(=O)c2ccc(Oc3nccnc3N3CCOCC3)cc2)nc2ccccc21 [Example 6, (1-ISOPROPYL-1H-BENZO[D]IMIDAZOL-2-YL)(4-(3-MORPHOLINOPYRAZIN-2-YLOXY)PHENYL)METHANONE] | 25 to 100 |
| COc1cccc(-c2nccnc2Oc2ccc(C(=O)c3nc4ccccc4[nH]3)cc2)c1 [Example 128, (1H-benzo[d]imidazol-2-yl)(4-(3-(3-methoxyphenyl)pyrazin-2-yloxy)phenyl)methanone] | < 25 |
| COC(=O)C1(c2nccnc2Oc2ccc(Nc3nc4ccccc4s3)cc2)CCN(C(=O)OC(C)(C)C)CC1 [Example 205, 1-tert-butyl 4-methyl 4-(3-(4-(benzo[d]thiazol-2-ylamino)phenoxy)pyrazin-2-yl)piperidine-1,4-dicarboxylate] | < 25 |
| CC(C)COc1nccnc1Oc1ccc(C(=O)c2nc3ccccc3[nH]2)cc1 [Example 162, (1H-benzo[d]imidazol-2-yl)(4-(3-isobutoxypyrazin-2-yloxy)phenyl)methanone] | 1000 to 5000 |
| COc1cc(-c2nccnc2Oc2ccc(C(=O)c3nc4ccccc4[nH]3)cc2)ccn1 [Example 120, (1H-benzo[d]imidazol-2-yl)(4-(3-(2-methoxypyridin-4-yl)pyrazin-2-yloxy)phenyl)methanone] | < 25 |
| O=C(c1ccc(Oc2nccnc2OCc2ccccn2)cc1)c1nc2ccccc2[nH]1 [Example 166, (1H-benzo[d]imidazol-2-yl)(4-(3-(pyridin-2-ylmethoxy)pyrazin-2-yloxy)phenyl)methanone] | 25 to 100 |
| Cc1cc(-c2nccnc2Oc2ccc(C(=O)c3nc4ccccc4[nH]3)cc2)ccn1 [Example 107, (1H-benzo[d]imidazol-2-yl)(4-(3-(2-methylpyridin-4-yl)pyrazin-2-yloxy)phenyl)methanone] | < 25 |
| CC(C)N1CCN(c2nccnc2Oc2ccc(Nc3nc4ccccc4s3)cc2)CC1=O [Example 91, 4-(3-(4-(benzo[d]thiazol-2-yl-amino)phenoxy)pyrazin-2-yl)-1-isopropylpiperazin-2-one] | 25 to 100 |
| COC[C@@H]1CCCN1c1nccnc1Oc1ccc(Nc2nc3ccccc3s2)cc1 [Example 57, (S)—N-(4-(3-(2-(METHOXYMETHYL)PYRROLIDIN-1-YL)PYRAZIN-2-YLOXY)PHENYL)BENZO[D]THIAZOL-2-AMINE] | < 25 |
| O=C1CCC(c2nccnc2Oc2ccc(C(=O)c3nc4ccccc4[nH]3)cc2)CC1 [Example 195, 4-(2-(4-(1H-BENZO[D]IMIDAZOLE-2-CARBONYL)PHENOXY)PYRAZIN-3-YL)CYCLOHEXANONE] | < 25 |
| COc1nc2ccccc2cc1-c1nccnc1Oc1ccc(C(=O)c2nc3ccccc3[nH]2)cc1 [Example 115, (1H-benzo[d]imidazol-2-yl)(4-(3-(2-methoxyquinolin-3-yl)pyrazin-2-yloxy)phenyl)methanone] | < 25 |
| OC1CCN(c2nccnc2Oc2ccc(Nc3nc4ccccc4s3)cc2)CC1 [Example 67, 1-(3-(4-(benzo[d]thiazol-2-ylamino)phenoxy)pyrazin-2-yl)piperidin-4-ol] | < 25 |
| O=C1CCCC(c2nccnc2Oc2ccc(Nc3nc4ccccc4s3)cc2)C1 (racemic) [Example 194, (rac)-3-(3-(4-(benzo[d]thiazol-2-ylamino)phenoxy)pyrazin-2-yl)cyclohexanone] | < 25 |
| O=C(O)c1ccc(-c2nccnc2Oc2ccc(C(=O)c3nc4ccccc4[nH]3)cc2)cc1 [Example 127, 4-(3-(4-(1H-benzo[d]imidazole-2-carbonyl)phenoxy)pyrazin-2-yl)benzoic acid] | < 25 |

Further lines, results first:

| IC50 [nM] | Compound |
| --- | --- |
| < 25 | CC(=O)N1CCC(c2nccnc2Oc2ccc(Nc3nc4ccccc4s3)cc2)C1 (stereo not shown) [Example 241, 1-(3-(3-(4-(benzo[d]thiazol-2-ylamino)phenoxy)pyrazin-2-yl)pyrrolidin-1-yl)ethanone] |
| < 25 | Fc1ccc2nc(Nc3ccc(Oc4nccnc4C4CCOCC4)cc3)sc2c1 [Example 214, 6-fluoro-N-(4-(3-(tetrahydro-2H-pyran-4-yl)pyrazin-2-yloxy)phenyl)benzo[d]thiazol-2-amine] |
| < 25 | CC(O)C(=O)N1CCC(c2nccnc2Oc2ccc(Nc3nc4ccccc4s3)cc2)CC1 (stereo not shown) [Example 239, 1-(4-(3-(4-(benzo[d]thiazol-2-ylamino)phenoxy)pyrazin-2-yl)piperidin-1-yl)-2-hydroxypropan-1-one] |
| < 25 | CC(=O)N1CCC(c2nccnc2Oc2ccc(Nc3nc4ccccc4s3)cc2F)CC1 [Example 248, 1-(4-(3-(4-(benzo[d]thiazol-2-ylamino)-2-fluorophenoxy)pyrazin-2-yl)piperidin-1-yl)ethanone] |
| 1000 to 5000 | Fc1ccc2sc(Nc3ccc(Oc4cnccn4)cc3)nc2c1 [Example 219, 5-fluoro-N-(4-(pyrazin-2-yloxy)phenyl)benzo[d]thiazol-2-amine] |
| < 25 | CN1CCC(c2nccnc2Oc2ccc(Nc3nc4ccccc4s3)cc2)CC1 [Example 237, N-(4-(3-(1-methylpiperidin-4-yl)pyrazin-2-yloxy)phenyl)benzo [d]thiazol-2-amine] |

same assay, conditions: PDE10 enzyme inhibition; average IC50 data for each compound; read-out: Average IC50

| Compound | IC50 [nM] |
| --- | --- |
| COC[C@@H]1CCCN1c1nccnc1Oc1ccc(C(=O)c2nc3ccccc3[nH]2)cc1 | 1.37 |
| N#C[C@H]1CCN(c2nccnc2Oc2ccc(Nc3nc4ccccc4s3)cc2)C1 (stereo in doubt) | 3.3 |
| CC(=O)O[C@@H](C)C(=O)N1CCC(c2nccnc2Oc2ccc(C(=O)c3nc4ccccc4[nH]3)cc2)CC1 (stereo in doubt) | 0.119 |
| C[C@@H]1CN(c2nccnc2Oc2ccc(C(=O)c3nc4ccccc4[nH]3)cc2)CC(=O)N1 (stereo in doubt) | 2.57 |
| O=C(c1ccc(Oc2nccnc2-c2cccnc2F)cc1)c1nc2ccccc2[nH]1 | 3.53 |
| C[C@H](Cc1ccccn1)NC(=O)c1nccnc1Oc1ccc(C(=O)c2nc3ccccc3[nH]2)cc1 (racemic) | 4.72 |
| CCOc1nccnc1Oc1ccc(C(=O)c2nc3ccccc3[nH]2)cc1 | 46 |
| O[C@@H]1C=C(c2nccnc2Oc2ccc(Nc3nc4ccccc4s3)c(F)c2)CCC1 (stereo in doubt) | 7.9 |
| CCOC(=O)[C@@H]1CCCN(c2nccnc2Oc2ccc(C(=O)c3nc4ccccc4[nH]3)cc2)C1 (stereo in doubt) | 0.773 |
| COc1ccc(COc2ncccc2-c2nccnc2Oc2ccc(C(=O)c3nc4ccccc4[nH]3)cc2)cc1 | 10.9 |

Now from value to compound:

| IC50 [nM] | Compound |
| --- | --- |
| 0.521 | COCC(=O)N1CCC(c2nccnc2Oc2ccc(C(=O)c3nc4ccccc4n3C)cc2)CC1 [drawing 982] |
| 7.08 | O=C(c1ccc(Oc2nccnc2-c2ccc[nH]c2=O)cc1)c1nc2ccccc2[nH]1 [drawing 938] |
| 2.64 | Fc1cc(Oc2nccnc2C2CCOCC2)ccc1Nc1nc2ccccc2s1 [drawing 877] |
| 0.575 | O=C(c1ccc(Oc2nccnc2C(=O)NC2(Cc3ccccc3)CC2)cc1)c1nc2ccccc2[nH]1 [drawing 822] |
| 0.594 | COc1ncccc1-c1nccnc1Oc1ccc(C(=O)c2nc3ccccc3n2C)cc1 [drawing 896] |
| 7.5 | O=C(c1ccc(Oc2nccnc2-c2ccncc2)cc1)c1nc2ccccc2[nH]1 [drawing 755] |
| 673 | CC#CCOc1nccnc1Oc1ccc(C(=O)c2nc3ccccc3[nH]2)cc1 [drawing 852] |
| 46.4 | COc1cc(-c2nccnc2Oc2ccc(Nc3nc4ccccc4s3)cc2)ccn1 [drawing 958] |
| 1.83 | O=C(c1ccc(Oc2nccnc2C2(F)CCOCC2)cc1)c1nc2ccccc2[nH]1 [drawing 924] |
| 4.96 | c1ccc2sc(Nc3ccc(Oc4nccnc4C4CCCC4)cc3)nc2c1 [drawing 948] |
| 14.2 | O=C(c1ccc(Oc2nccnc2C2=CCC(F)(F)CC2)cc1)c1nc2ccccc2[nH]1 [drawing 862] |
| 17.5 | N#Cc1ccc(-c2nccnc2Oc2ccc(C(=O)c3nc4ccccc4[nH]3)cc2)cc1 [drawing 734] |
| 0.321 | COc1ncccc1-c1nccnc1Oc1ccc(C(=O)c2nc3ccccc3[nH]2)cc1 [drawing 866] |
| 3.05 | C[C@@H]1CN(c2nccnc2Oc2ccc(Nc3nc4ccccc4s3)cc2)CC(=O)N1 [drawing 834] |
| 0.186 | COc1cccc2nc(Nc3ccc(Oc4nccnc4C4CCOCC4)cc3)[nH]c12 [drawing 941] |
| 21.7 | OCC1CCCCN1c1nccnc1Oc1ccc(Nc2nc3ccccc3s2)cc1 (stereo not shown) [drawing 730] |
| 287 | O=C(c1ccc(Oc2nccnc2Cl)cc1)c1nc2ccccc2[nH]1 [drawing 714] |
| 25.2 | CCCOc1nccnc1Oc1ccc(C(=O)c2nc3ccccc3[nH]2)cc1 [drawing 905] |
| 11.8 | Fc1ccc2sc(Nc3ccc(Oc4nccnc4C4CCOCC4)cc3)nc2c1 [drawing 881] |
| 2.5 | N#CC1(c2nccnc2Oc2ccc(C(=O)c3nc4ccccc4[nH]3)cc2)CCOCC1 [drawing 868] |

same assay, conditions: PDE10 enzyme inhibition; chiral compounds separated from racemic mixtures; read-out: IC50

| Compound | IC50 [nM] |
| --- | --- |
| O[C@H]1CCC[C@@H](c2nccnc2Oc2ccc(Nc3nc4ccccc4s3)cc2)C1 [Example 271, (1S,3R)-3-(3-(4-(benzo[d]thiazol-2-ylamino)phenoxy)pyrazin-2-yl)cyclohexanol] | < 25 |

Source: patent publication US20120277209A1, “PYRAZINE COMPOUNDS AS PHOSPHODIESTERASE 10 INHIBITORS” (Amgen Inc., priority 2009, published 2012)
